Laboratory results: patent US20260242388A1, “NBD1 MODULATORS AND METHODS OF USING THE SAME” (Sionna Therapeutics Inc., priority 2023, published 2026)

test system: NBD1; assay: Aggregation analysis using differential static light scattering (DSLS), thermal stability of NBD1; format: binding, Human; conditions: 100 μM compound; ΔTagg = Tagg minus average Tagg of DMSO control wells; NBD1 0.2 mg/ml
Procedure: Example 23. Aggregation Analysis Using Differential Static Light Scattering (DSLS)
Purified recombinant NBD1 was produced using previously described methods (A. Schmidt, J. L. Mendoza, P. J. Thomas (2011) Biochemical and Biophysical Approaches to Probe CFTR Structure (365-376) M. D. Amaral, K. Kunzelmann (eds.), Cystic Fibrosis, Methods in Molecular Biology 741, Springer Science+Business Media). The effect of test compounds on thermal stability of NBD1 was evaluated by differential static light scattering (DSLS) using the Harbinger Stargazer-384 instrument (Epiphyte Three, Toronto, Canada). Test compounds were dissolved and diluted to desired concentrations in 100% DMSO. The compounds or DMSO controls (100 nL) were stamped into wells of a […] low volume optical plate (Corning Inc., Corning, NY) using the Echo 555 acoustic liquid handler (Labcyte Inc., San Jose, CA).
NBD1 protein was diluted to 0.2 mg/ml in S200 buffer (50 mM Tris-HCl, 150 mM NaCl, 5 mM MgCl2, 2 mM ATP, 2 mM DTT, pH7.6) containing 1% glycerol. 10 μL of protein solution was aliquoted into the 384-well plate harboring the test compounds and 10 μL mineral oil was overlayed onto the protein solution, using the epMotion robotic liquid handler (Eppendorf North America, Hauppauge, NY). After placing into the Stargazer instrument, the plate was heated at 1° C. per minute to 70° C. Images were captured from 25° C. to 70° C. every 0.5° C. At the end of the experiment run, instrument software integrated image files and analyzed data automatically. A linear regression curve was generated for each well, representing the increase in light scattering over time. A temperature of aggregation (Tagg) was calculated based on the inflection point of the curve. To better compare data across experiments the average Tagg for DMSO control wells was calculated and subtracted from values for wells containing compounds to obtain a “ΔTagg” value. These ΔTagg values reflect stabilizing efficacy of the compounds.

| Compound | DSLS NBD1/3D Human Stability delta-T (° C.) @ 100 (μM) |
| --- | --- |
| O=C(O)CCc1cccc([C@@H]2NCCc3nc(-c4cc(Oc5c(F)cc6[nH]ccc6c5F)ccc4F)[nH]c32)c1F (single isomer, unassigned) [Example 4] | C (≤4° C.) |
| CN1CCc2nc(-c3cc(Oc4c(F)cc5[nH]ccc5c4F)ccc3F)[nH]c2[C@H]1c1cccc(CCC(=O)O)c1F (single isomer, unassigned) [Example 5] | B (4-8° C.) |
| CN1CCc2nc(-c3cc(Oc4c(F)cc5[nH]ccc5c4F)ccc3F)[nH]c2[C@@H]1c1cccc(CCC(=O)O)c1F (single isomer, unassigned) [Example 6] | A (T ≥ 8° C.) |
| O=C(O)Cc1cccc(C2OCCc3[nH]c(-c4cc(Oc5c(F)cc6[nH]ccc6c5F)ccc4F)nc32)c1 (stereo not shown) [Example 2, 2-(3-(2-(5-((4,6-difluoro-1H-indol-5-yl)oxy)-2-fluorophenyl)-1,4,6,7-tetrahydropyrano[3,4-d]imidazol-4-yl)phenyl)acetic acid] | B (4-8° C.) |
| CC(Cc1cccc(C2c3nc(-c4cc(Oc5c(F)cc6[nH]ccc6c5S(C)(=O)=O)ccc4F)[nH]c3CCN2C)c1F)C(=O)O (stereo not shown) [Example 7, 3-[2-fluoro-3-[2-[2-fluoro-5-[(6-fluoro-4-methylsulfonyl-1H-indol-5-yl)oxy]phenyl]-5-methyl-1,4,6,7-tetrahydroimidazo[4,5-c]pyridin-4-yl]phenyl]-2-methyl-propanoic acid] | A (T ≥ 8° C.) |
| Cc1c(-c2cc(Oc3c(F)cc4[nH]ccc4c3F)ccc2F)nc2n1CCNC2c1cccc(CC(O)CO)c1F (stereo not shown) [Example 9, 3-[3-[2-[5-[(4,6-difluoro-1H-indol-5-yl)oxy]-2-fluoro-phenyl]-3-methyl-5,6,7,8-tetrahydroimidazo[1,2-a]pyrazin-8-yl]-2-fluoro-phenyl]propane-1,2-diol] | B (4-8° C.) |
| CCOC(=O)C(C)Cc1cccc(C2NCCn3c2nc(-c2cc(Oc4c(F)cc5[nH]ccc5c4F)ccc2F)c3C)c1F (stereo not shown) [Example 10, ethyl 3-[3-[2-[5-[(4,6-difluoro-1H-indol-5-yl)oxy]-2-fluoro-phenyl]-3-methyl-5,6,7,8-tetrahydroimidazo[1,2-a]pyrazin-8-yl]-2-fluoro-phenyl]-2-methyl-propanoate] | C (≤4° C.) |
| CCOC(=O)CCc1cccc(C2c3nc(-c4cc(Oc5c(F)cc6[nH]ccc6c5S(C)(=O)=O)ccc4F)[nH]c3CCN2C)c1F (stereo not shown) [Example 13, ethyl 3-[2-fluoro-3-[2-[2-fluoro-5-[(6-fluoro-4-methylsulfonyl-1H-indol-5-yl)oxy]phenyl]-5-methyl-1,4,6,7-tetrahydroimidazo[4,5-c]pyridin-4-yl]phenyl]propanoate] | B (4-8° C.) |
| CN1CCc2[nH]c(-c3cc(Oc4c(F)cc5[nH]ccc5c4S(C)(=O)=O)ccc3F)nc2C1c1cccc(CCC(=O)O)c1F (stereo not shown) [Example 14, 3-[2-fluoro-3-[2-[2-fluoro-5-[(6-fluoro-4-methylsulfonyl-1H-indol-5-yl)oxy]phenyl]-5-methyl-1,4,6,7-tetrahydroimidazo[4,5-c]pyridin-4-yl]phenyl]propanoic acid] | A (T ≥ 8° C.) |
| CCOC(=O)CCc1cccc(C2c3nc(-c4cc(Oc5c(F)cc6[nH]ccc6c5S(C)(=O)=O)ccc4F)[nH]c3CCN2CC(F)F)c1F (stereo not shown) [Example 15, ethyl 3-[3-[5-(2,2-difluoroethyl)-2-[2-fluoro-5-[(6-fluoro-4-methylsulfonyl-1H-indol-5-yl)oxy]phenyl]-1,4,6,7-tetrahydroimidazo[4,5-c]pyridin-4-yl]-2-fluoro-phenyl]propanoate] | C (≤4° C.) |
